Data published in patent EP1538164A1, “RGD targeting moiety its production and use” (Vectron Therapeutics AG, priority 2003, dated 2005).
Positions of bridges follow the written chain, without caps; N, C: chain ends. Residues, ends and D or L forms follow the SMILES beside them.

Assays:
HUVEC [1] = test: Competition of liposome binding by free competitors (HUVEC); design: species or system human
Method: Fig. 1: Binding of carboxyfluorescein-labelled RGD-10 to HUVECs. Thin line - cells without peptide, bold line - cells incubated with CF-labelled RGD-10. Fig. 2: Titration of inhibition of RGD-10 binding by peptides RGD-10 or RGD-4C analyzed by cell ELISA. Fig. 3: Structure of lipopeptides consisting of a peptide ligand with an acetylated Nterminus, the doo spacer linked to a dipalmitoyl-glycero-succinyl-lysine anchor. Fig. 4: A) Binding of RGD10 liposomes to HUVEC or B16.F10. Liposomes containing the RGD10-LP or RGD10-LP3 lipopeptide at a conc. of 0.1 mol% (thin line), 1 mol% (normal line), or 5 mol% (bold line) were analyzed for binding to HUVECs or B16.F10 (marked with 0). Binding of liposomes lacking lipopeptides is indicated as dotted line. B.) Liposomes containing the RGD10LP3 lipopeptide at a conc. of 1 mol% were analyzed for binding to MeWo or A431 cells. Dotted line = cells alone, normal line = liposomes without lipopeptide, bold line, RGD10-LP3 liposomes. Fig. 5: Competition experiments. […] Thin line = cells alone, normal line = plus peptide or 5 doo, bold line = liposomes without competitor. Fig. 6: Cell binding and internalization of RGD-10-LP3 liposomes. Fluorescence microscopy analysis of binding of RGD10-LP3 liposomes or liposomes lacking lipopeptide (untargeted liposomes) to HUVECs at 4°C or 37°C. […] Fig. 7: Pharmacokinetic analysis of liposomes containing 1 mol% LP1, 1 mol% LP3, or 0.1 mol% LP3. Fig. 8: Antitumor effects of LP3-liposomes (Dox-LP3 liposomes) loaded with doxorubicin in comparison to untargeted liposomes (Dox liposomes) or free doxorubicin analyzed in a C26 murine colon carcinoma tumor model.
(§1) Thus, binding to integrin-expressing cells is specifically mediated by the RGD peptide.

B16.F10 = test: Competition of liposome binding by free competitors (B16.F10); design: species or system murine; conditions: RGD10 LP1-containing liposomes
From the text: as §1

HUVEC [2] = test: Direct binding of carboxyfluorescein-labelled RGD-10 to HUVEC; design: species or system human; conditions: synthetic carboxyfluorescein-labeled RGD-10 peptide, Fig. 1
Method: Fig. 1: Binding of carboxyfluorescein-labelled RGD-10 to HUVECs. Thin line - cells without peptide, bold line - cells incubated with CF-labelled RGD-10. Fig. 2: Titration of inhibition of RGD-10 binding by peptides RGD-10 or RGD-4C analyzed by cell ELISA. Fig. 3: Structure of lipopeptides consisting of a peptide ligand with an acetylated Nterminus, the doo spacer linked to a dipalmitoyl-glycero-succinyl-lysine anchor. Fig. 4: A) Binding of RGD10 liposomes to HUVEC or B16.F10. Liposomes containing the RGD10-LP or RGD10-LP3 lipopeptide at a conc. of 0.1 mol% (thin line), 1 mol% (normal line), or 5 mol% (bold line) were analyzed for binding to HUVECs or B16.F10 (marked with 0). Binding of liposomes lacking lipopeptides is indicated as dotted line. B.) Liposomes containing the RGD10LP3 lipopeptide at a conc. of 1 mol% were analyzed for binding to MeWo or A431 cells. Dotted line = cells alone, normal line = liposomes without lipopeptide, bold line, RGD10-LP3 liposomes. Fig. 5: Competition experiments. […] Fluorescence microscopy analysis of binding of RGD10-LP3 liposomes or liposomes lacking lipopeptide (untargeted liposomes) to HUVECs at 4°C or 37°C. […] Fig. 8: Antitumor effects of LP3-liposomes (Dox-LP3 liposomes) loaded with doxorubicin in comparison to untargeted liposomes (Dox liposomes) or free doxorubicin analyzed in a C26 murine colon carcinoma tumor model. […]

[3] = tested on: integrin-expressing cells; conditions: titration of competition of RGD-10 binding, cell ELISA, Fig. 2
HDMEC = test: Peptide binding to HDMEC; design: species or system human; conditions: compared with RGD-4C oxidized in two steps
From the text: For further analysis we selected 2C-RGD peptide RGD-10 ([…]). The RGD-10 peptide was synthesized with the sequence […], thus lacking the C-terminal aspartate residue and resulting in a neutral net charge. […] For these experiments RGD-4C was oxidized in a two-step process to obtain disulfide bonds between C1-C4 and C2-C3 described to be essential for high affinity binding (Assa-Munt, et al. (2001) Biochemistry 40: 2373-2378). Compared to RGD-4C, RGD-10 contains only 2 cysteine residues, which facilitates synthesis of oxidized peptides using a one-step oxidation reaction. Furthermore, RGD-10 contains two aromatic residues, which allows spectrophotometrical detection at 280 nm. […] Thus, RGD-10 binds with the same affinity to integrin-expressing cells as RGD-4C, however, is much simpler to produce.

[4] = RGD10-LP3 liposomes (1 mol% lipopeptide), 100 µM competitor, Fig. 5
[5] = RGD10 LP1-containing liposomes (Example 3)

C[C@H](N)C(=O)N[C@H]1CSSC[C@@H](C(=O)NCC(=O)O)NC(=O)[C@H](Cc2ccccc2)NC(=O)[C@@H]2CSSC[C@H](NC(=O)[C@H](CC(=O)O)NC1=O)C(=O)N[C@@H](CCCNC(=N)N)C(=O)NCC(=O)N[C@@H](CC(=O)O)C(=O)N2 [RGD-4C, reference compound] (H-ACDCRGDCFCG-OH; disulfide 2-10, 4-8; N-terminus and C-terminus assumed)
inhibition of binding of liposomes to HUVEC (HUVEC [1]; [4]): completely inhibited
inhibition of binding of liposomes to HUVEC (HUVEC [1]; [5]): completely inhibited
inhibition of binding of liposomes to B16.F10 (B16.F10): completely inhibited

C[C@H](NC(=O)CN)C(=O)N[C@@H](CCCNC(=N)N)C(=O)N[C@@H](Cc1ccc(O)cc1)C(=O)N[C@H]1CSSC[C@@H](C(=O)N[C@@H](Cc2ccccc2)C(=O)N[C@@H](CC(=O)O)C(=O)NCC(=O)O)NC(=O)[C@H](CC(=O)O)NC(=O)CNC(=O)[C@H](CCCNC(=N)N)NC1=O [RGD-10] (H-GARYCRGDCFDG-OH; disulfide 5-9; N-terminus and C-terminus assumed)
binding to HUVEC (HUVEC [2]): Direct binding
inhibition of binding of liposomes to HUVEC (HUVEC [1]; [4]): completely inhibited
inhibition of binding of liposomes to HUVEC (HUVEC [1]; [5]): completely inhibited
inhibition of binding of liposomes to B16.F10 (B16.F10): completely inhibited
IC50 [3]: ~200 nM
binding strength to HDMEC (HDMEC): comparable strength as RGD-4C
